Assay results from US20090047221A1 (NIPRI LIMITED, priority 2004, published 2009).
Read-outs that look alike come from different tables or passages of the source.

Tests used:
Experiment in all cases: MTT assay (anti-proliferative activity)
Assay type in all cases: cell-based
SkMel28 = details: read-out: IC 50 SkMel28
Procedure: (§1) The MTT assay was used initially to determine the anti-proliferative activity of the test compounds. In the MTT assay a yellow thiazolyl blue tetrazolium bromide salt (MTT) is reduced, in metabolically active cells, to form insoluble purple formazan crystals which are solubilised by the addition of dimethyl sulphoxide (DMSO).
(§2) Wells containing medium only were used as blanks. Following the attachment period, cells were treated with appropriate drug concentrations (20 μl added per well). 40 mg/ml stock drug solutions, in DMSO, were stored at −20° C. and on the day of drug treatment working solutions of 4 mg/ml were prepared in medium which was further diluted to achieve final drug dilution volumes of 20 μl. Initial screening was determined over a concentration range of 1-200 μg/ml. […] Cells were exposed to drug for 96 h continual exposure (37° C., 5% CO2). Following the 96 h incubation, 50 μl MTT solution (1 g MTT/500 ml PBS) was added per well and the plates were further incubated for 4 h (37° C., 5% CO2). After incubation the MTT and medium was removed from the wells and 100 μl DMSO added per well. Plates were agitated on an orbital mixer platform (Stuart Scientific) for 10 minutes. Absorbance was measured at 570 nm on a Biotrak II (Amersham Bioscience) plate reader. IC50 values were calculated comparing control and drug treated cells.

MDA-MB-468 = details: read-out: IC 50 MDA-MB-468
Procedure: as §1, §2

MalMe3M = details: 96 h continual exposure, read-out: IC 50 MalMe3M
Procedure: as §1, §2

MCF-7 = details: read-out: IC 50 MCF-7
Procedure: as §1, §2

[1] = Homo sapiens, SK-MEL-28, 96 h continual exposure
[2] = Homo sapiens, MDA-MB-468, 96 h continual exposure
[3] = Homo sapiens, MCF7, 96 h continual exposure

Compound | IC50 (SkMel28; 96 h continual exposure) [µM] | IC50 (MDA-MB-468; 96 h continual exposure) [µM] | IC50 (MalMe3M) [µM] | IC50 (MCF-7; 96 h continual exposure) [µM] | IC50 (SkMel28; [1]) [µM] | IC50 (MDA-MB-468; [2]) [µM] | IC50 (MalMe3M; Homo sapiens, Malme-3M) [µM] | IC50 (MCF-7; [3]) [µM]
CNC(=O)c1ccc2c(c1O)C(=O)OC(C)C2 (racemic) [ALM-48, Methyl Amide] | 502 | 289 | 191 | 268 | – | – | – | –
CC(=O)Oc1cccc2c1C(=O)OC(C)C2 (racemic) [ALM-15, Acetyl rac-Mellein] | 622 | 345 | 613 | 613 | – | – | – | –
CC1Cc2ccc(C(=O)NC(C(=O)O)c3ccccc3)c(O)c2C(=O)O1 (mixture of isomers) [ALM-64] | > 562 | 118 | > 562 | 197 | – | – | – | –
CC1Cc2ccc(C(=O)O)c(O)c2C(=O)O1 (racemic) [ALM-33, 8-Hydroxy-3-methyl-1-oxo-isochroman-7-carboxylic acid] | – | – | – | – | > 900 | 585 | > 900 | > 900
CC1Cc2ccc(C(=O)OC(C)(C)C)c(O)c2C(=O)O1 (racemic) [ALM-39, Tert-Butyl Ester] | 359 | 305 | 345 | 392 | – | – | – | –
CC1Cc2ccc(C(=O)NCCC(=O)O)c(O)c2C(=O)O1 (racemic) | > 681 | 222 | 290 | 136 | – | – | – | –
CC1Cc2c(Br)ccc(O)c2C(=O)O1 (racemic) [ALM-24] | – | – | – | – | 296 | 171 | 249 | 261
CC1Cc2ccc(C(=O)OC3CCCCC3)c(O)c2C(=O)O1 (racemic) [ALM-38, Cyclohexyl Ester] | 131 | 131 | 131 | 98.6 | – | – | – | –
COC(=O)c1ccc2c(c1O)C(=O)OCC2 [ALM-68, 8-hydroxy-1-oxo-isochroman-7-carboxylic acid methyl ester] | – | – | – | – | 562 | 270 | 518 | 338
CC1Cc2c(F)ccc(O)c2C(=O)O1 (racemic) [ALM-23, Racemic Para-Fluoromellein] | > 1020 | 469 | > 1020 | > 1020 | – | – | – | –
CCCCC/C=C\C/C=C\C/C=C\CCCCC(=O)Oc1cccc2c1C(=O)OC(C)C2 (racemic) [ALM-20, Racemic Mellein γ-Linolenyl Ester] | > 455 | > 455 | > 455 | 342 | – | – | – | –
CCOC(=O)Oc1cccc2c1C(=O)OC(C)C2 (racemic) [ALM-16, Racemic Mellein Ethyl Carbonate] | 360 | 240 | 456 | 296 | – | – | – | –
CC1Cc2c(I)ccc(O)c2C(=O)O1 (racemic) [ALM-26, Racemic Para-Iodomellein] | – | – | – | – | – | 263 | 168 | 329
Racemic Mellein Oleyl Ester [ALM-17] | > 451 | > 451 | > 451 | > 451 | – | – | – | –
C[C@H]1Cc2cccc(O)c2C(=O)O1 [ALM-10, (3S)-mellein] | – | – | – | – | 961 | 317 | 360 | 596
CC1(C)Cc2ccc(C(=O)O)c(O)c2C(=O)O1 [ALM-72, 8-hydroxy-3,3-dimethyl-1-oxo-isochroman-7-carboxylic acid] | – | – | – | – | > 846 | > 846 | > 846 | > 846
COC(=O)c1ccc2c(c1O)C(=O)OC(C)(C)C2 [ALM-71, 8-hydroxy-3,3-dimethyl-1-oxo-isochroman-7-carboxylic acid methyl ester] | – | – | – | – | > 799 | 336 | > 799 | 400

Compound | IC50 (SkMel28; 96 h continual exposure) [µM] | IC50 (MDA-MB-468; 96 h continual exposure) [µM] | IC50 (MalMe3M) [µM] | IC50 (MCF-7; 96 h continual exposure) [µM] | IC50 (SkMel28; [1]) [µM] | IC50 (MDA-MB-468; [2]) [µM] | IC50 (MalMe3M; Homo sapiens, Malme-3M) [µM] | IC50 (MCF-7; [3]) [µM]
CCCCCCCCCCCCOC(=O)c1ccc2c(c1O)C(=O)OC(C)C2 (racemic) [ALM-41, Dodecyl Ester] | 256 | 166 | 333 | 192 | – | – | – | –
CC/C=C\C/C=C\C/C=C\CCCCCCCC(=O)Oc1c(OC)c(OC)cc2c1C(=O)OC(C)C2 (racemic) [ALM-4, Racemic Kigelin α-Linolenyl Ester] | > 401 | 90.2 | 321 | 60.2 | – | – | – | –
CC1Cc2ccc(C(=O)OCc3ccccc3)c(O)c2C(=O)O1 (racemic) [ALM-36, Benzyl Ester] | 176 | 99.3 | 106 | – | – | – | – | –
CCCCCCOC(=O)c1ccc2c(c1O)C(=O)OC(C)C2 (racemic) [ALM-40, Hexyl Ester] | 163 | 42.4 | 114 | 65.3 | – | – | – | –
COc1cc2c(c(OC)c1)C(=O)OC(C)C2 (racemic) [ALM-7, 6,8-Dimethoxy-3-methyl-isochroman-1-one] | – | – | – | – | > 900 | 486 | 626 | 432
COC(=O)c1ccc2c(c1O)C(=O)OC(C)C2 (racemic) [ALM-34, 8-Hydroxy-3-methyl-1-oxo-isochroman-7-carboxylic acid methyl ester] | – | – | – | – | > 847 | 360 | > 847 | > 847
CCCCCCN(C)C(=O)c1ccc2c(c1O)C(=O)OC(C)C2 (racemic) [ALM-50, N-Methyl-N-Hexyl Amide] | 141 | 59.5 | 110 | 90.8 | – | – | – | –
Racemic Kigelin Oleyl Ester [ALM-2] | > 397 | > 397 | > 397 | > 397 | – | – | – | –
CC1Cc2c([N+](=O)[O-])cc([N+](=O)[O-])c(O)c2C(=O)O1 (racemic) [ALM-30, Racemic 2,4-dinitromellein] | – | – | – | – | 179 | 138 | 142 | 130
CC1Cc2ccc(C(=O)NC(CCCCN)C(=O)O)c(O)c2C(=O)O1 (mixture of isomers) [ALM-67] | > 570 | > 570 | > 570 | > 570 | – | – | – | –
CCCCC/C=C\C/C=C\CCCCCCCC(=O)Oc1c(OC)c(OC)cc2c1C(=O)OC(C)C2 (racemic) [ALM-3, Racemic Kigelin Linoleyl Ester] | > 399 | 99.9 | > 399 | 150 | – | – | – | –
C[C@@H]1Cc2ccc(C(=O)N[C@@H](Cc3ccccc3)C(=O)O)c(O)c2C(=O)O1 [ALM-32, ochratoxin B] | 21.6 | 18.9 | 13.5 | 18.9 | – | – | – | –
COc1cccc2c1C(=O)O[C@H](C)C2 [ALM-14, (3R)-methoxy mellein] | – | – | – | – | > 1040 | > 1040 | > 1040 | 1040
CC1Cc2ccc(C(=O)NCc3ccccc3)c(O)c2C(=O)O1 (racemic) [ALM-44, Benzyl Amide] | 270 | 41.8 | 128 | 86.7 | – | – | – | –
CC(=O)c1ccc2c(c1O)C(=O)OC(C)C2 (racemic) [ALM-29, Racemic ortho-acetylmellein] | – | – | – | – | 363 | 341 | 341 | 341
CC(C)CC(NC(=O)c1ccc2c(c1O)C(=O)OC(C)C2)C(=O)O (mixture of isomers) [ALM-56, Leucine Amide] | > 596 | 113 | 486 | – | – | – | – | –
